What was measured:
Assay in all cases: cells
Calu-6 = type: functional, cell-based, Homo sapiens; settings: Homo sapiens, Calu-6;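 also: growth of human Calu-6 cells, read out by a cell viability assay, IC50 marking inhibition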
Description: SANGER: Inhibition of human Calu-6 cell growth in a cell viability assay.

DoTc2-4510 = type: functional, cell-based, Homo sapiens; settings: Homo sapiens, DoTc2-4510
ES1 = type: functional, cell-based, Homo sapiens; settings: Homo sapiens, ES1;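 also: growth inhibition of ES1 cells, read out with a cell viability assay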
Description: SANGER: Inhibition of human ES1 cell growth in a cell viability assay.

ES8 = type: functional, cell-based, Homo sapiens; settings: Homo sapiens, ES8;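 also: growth inhibition of human ES8 cells, read out with a cell viability assay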
Description: SANGER: Inhibition of human ES8 cell growth in a cell viability assay.

G-401 = type: functional, cell-based, Homo sapiens; settings: Homo sapiens, G-401
Description: SANGER: Inhibition of human G-401 cell growth in a cell viability assay.

GCIY = type: functional, cell-based, Homo sapiens; settings: Homo sapiens, GCIY;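 also: growth inhibition of the human GCIY cell line, read out by a cell viability assay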
Description: SANGER: Inhibition of human GCIY cell growth in a cell viability assay.

HCC1187 = type: functional, cell-based, Homo sapiens; settings: Homo sapiens, HCC1187;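 also: growth inhibition of HCC1187 cells, read out with a cell viability assay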
Description: SANGER: Inhibition of human HCC1187 cell growth in a cell viability assay.

HCE-4 = type: functional, cell-based, Homo sapiens; settings: Homo sapiens, HCE-4;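 also: cell viability assay measuring inhibition of growth in the human HCE-4 cell line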
Description: SANGER: Inhibition of human HCE-4 cell growth in a cell viability assay.

HGC-27 = type: functional, cell-based, Homo sapiens; settings: Homo sapiens, HGC-27;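 also: growth inhibition of human HGC-27 cells, read out in a cell viability assay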
Description: SANGER: Inhibition of human HGC-27 cell growth in a cell viability assay.

HOS = type: functional, cell-based, Homo sapiens; settings: Homo sapiens, HOS;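 also: growth inhibition of human HOS cells, read out with a cell viability assay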
Description: SANGER: Inhibition of human HOS cell growth in a cell viability assay.

HSC-2 = type: functional, cell-based, Homo sapiens; settings: Homo sapiens, HSC-2;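 also: growth inhibition of human HSC-2 cells, read out by a cell viability assay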
Description: SANGER: Inhibition of human HSC-2 cell growth in a cell viability assay.

IGROV-1 = type: functional, cell-based, Homo sapiens; settings: Homo sapiens, IGROV-1;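 also: reduction of IGROV-1 cell growth, read out with a viability assay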
Description: SANGER: Inhibition of human IGROV-1 cell growth in a cell viability assay.

J-RT3-T3-5 = type: functional, cell-based; settings: Homo sapiens;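 also: cell viability assay measuring growth inhibition of human J-RT3-T3-5 cells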
Description: SANGER: Inhibition of human J-RT3-T3-5 cell growth in a cell viability assay.

KY821 = type: functional, cell-based; settings: Homo sapiens;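 also: growth inhibition of human KY821 cells, read out by a cell viability assay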
Description: SANGER: Inhibition of human KY821 cell growth in a cell viability assay.

LU-134-A = type: functional, cell-based; settings: Homo sapiens
Description: SANGER: Inhibition of human LU-134-A cell growth in a cell viability assay.

LU-99A = type: functional, cell-based, Homo sapiens; settings: Homo sapiens, LU-99A;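 also: growth inhibition of LU-99A cells, read out with a cell viability assay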
Description: SANGER: Inhibition of human LU-99A cell growth in a cell viability assay.

MG-63 = type: functional, cell-based, Homo sapiens; settings: Homo sapiens, MG-63;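 also: growth inhibition of human MG-63 cells, read out with a cell viability assay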
Description: SANGER: Inhibition of human MG-63 cell growth in a cell viability assay.

MKN-7 = type: functional, cell-based, Homo sapiens; settings: Homo sapiens, MKN-7;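 also: growth inhibition of MKN-7 cells, read out with a cell viability assay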
Description: SANGER: Inhibition of human MKN7 cell growth in a cell viability assay.

ML-2 = type: functional, cell-based; settings: Homo sapiens;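 also: growth inhibition of ML-2 cells, measured with a cell viability readout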
Description: SANGER: Inhibition of human ML-2 cell growth in a cell viability assay.

NB14 = type: functional, cell-based; settings: Homo sapiens;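 also: growth inhibition of NB14 cells measured with a cell viability assay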
Description: SANGER: Inhibition of human NB14 cell growth in a cell viability assay.

NCI-H1648 = type: functional, cell-based, Homo sapiens; settings: Homo sapiens, NCI-H1648;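 also: cell viability assay measuring inhibition of NCI-H1648 cell growth, from the Sanger screening data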
Description: SANGER: Inhibition of human NCI-H1648 cell growth in a cell viability assay.

NCI-H1770 = type: functional, cell-based; settings: Homo sapiens;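 also: growth inhibition of NCI-H1770 cells determined with a viability readout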
Description: SANGER: Inhibition of human NCI-H1770 cell growth in a cell viability assay.

NCI-H2052 = type: functional, cell-based, Homo sapiens; settings: Homo sapiens, NCI-H2052;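 also: growth inhibition of NCI-H2052 cells, read out with a cell viability assay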
Description: SANGER: Inhibition of human NCI-H2052 cell growth in a cell viability assay.

NCI-H2170 = type: functional, cell-based, Homo sapiens; settings: Homo sapiens, NCI-H2170;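 also: cell viability assay measuring growth inhibition of human NCI-H2170 cancer cells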
Description: SANGER: Inhibition of human NCI-H2170 cell growth in a cell viability assay.

NCI-H2405 = type: functional, cell-based, Homo sapiens; settings: Homo sapiens, NCI-H2405;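 also: growth inhibition of the human cell line, read out with a cell viability assay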
Description: SANGER: Inhibition of human NCI-H2405 cell growth in a cell viability assay.

NCI-H2452 = type: functional, cell-based, Homo sapiens; settings: Homo sapiens, NCI-H2452;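 also: growth inhibition of NCI-H2452 cells, read out with a cell viability assay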
Description: SANGER: Inhibition of human NCI-H2452 cell growth in a cell viability assay.

NCI-H441 = type: functional, cell-based; settings: Homo sapiens;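 also: growth inhibition of NCI-H441 cells, read out with a cell viability assay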
Description: SANGER: Inhibition of human NCI-H441 cell growth in a cell viability assay.

NCI-H596 = type: functional, cell-based, Homo sapiens; settings: Homo sapiens, NCI-H596;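 also: growth inhibition of NCI-H596 cells, read out with a cell viability assay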
Description: SANGER: Inhibition of human NCI-H596 cell growth in a cell viability assay.

NCI-H810 = type: functional, cell-based, Homo sapiens; settings: Homo sapiens, NCI-H810;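 also: IC50 reflects inhibition of cancer cell line growth, read out with a cell viability assay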
Description: SANGER: Inhibition of human NCI-H810 cell growth in a cell viability assay.

NKM-1 = type: functional, cell-based; settings: Homo sapiens;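 also: growth inhibition of NKM-1 cells, read out with a cell viability assay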
Description: SANGER: Inhibition of human NKM-1 cell growth in a cell viability assay.

OAW-42 = type: functional, cell-based, Homo sapiens; settings: Homo sapiens, OAW-42;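 also: growth inhibition of OAW-42 cells, read out with a cell viability assay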
Description: SANGER: Inhibition of human OAW-42 cell growth in a cell viability assay.

OCUB-M = type: functional, cell-based, Homo sapiens; settings: Homo sapiens, OCUB-M;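 also: growth inhibition of the cancer cell line, read out through a cell viability assay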
Description: SANGER: Inhibition of human OCUB-M cell growth in a cell viability assay.

PFSK-1 = type: functional, cell-based, Homo sapiens; settings: Homo sapiens, PFSK-1;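 also: cell viability assay measuring how strongly compounds suppress growth of human PFSK-1 cells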
Description: SANGER: Inhibition of human PFSK-1 cell growth in a cell viability assay.

RS4-11 = type: functional, cell-based; settings: Homo sapiens;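 also: growth inhibition of RS4-11 cells, read out by a cell viability assay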
Description: SANGER: Inhibition of human RS4-11 cell growth in a cell viability assay.

RT-112 = type: functional, cell-based, Homo sapiens; settings: Homo sapiens, RT-112
Description: SANGER: Inhibition of human RT-112 cell growth in a cell viability assay.

SW948 = type: functional, cell-based, Homo sapiens; settings: Homo sapiens, SW948;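 also: growth inhibition of SW948 cells, read out with a cell viability assay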
Description: SANGER: Inhibition of human SW948 cell growth in a cell viability assay.

T98G = type: functional, cell-based, Homo sapiens; settings: Homo sapiens, T98G;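 also: growth inhibition of T98G cells, read out by a cell viability assay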
Description: SANGER: Inhibition of human T98G cell growth in a cell viability assay.

647-V = type: functional, cell-based, Homo sapiens; settings: Homo sapiens, 647-V;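 also: growth inhibition of 647-V cells, read out with a cell viability assay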
Description: SANGER: Inhibition of human 647-V cell growth in a cell viability assay.

769-P = type: functional, cell-based, Homo sapiens; settings: Homo sapiens, 769-P
Description: SANGER: Inhibition of human 769-P cell growth in a cell viability assay.

A2058 = type: functional, cell-based; settings: Homo sapiens;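 also: reduction of A2058 cell growth, read out with a viability assay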
Description: SANGER: Inhibition of human A2058 cell growth in a cell viability assay.

A253 cell line = type: functional, cell-based, Homo sapiens; settings: Homo sapiens, A253;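 also: growth inhibition of A253 cells, read out with a cell viability assay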
Description: SANGER: Inhibition of human A253 cell growth in a cell viability assay.

A498 = type: functional, cell-based, Homo sapiens; settings: Homo sapiens, A498;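 also: growth inhibition of human A498 cells, read out with a cell viability assay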
Description: SANGER: Inhibition of human A498 cell growth in a cell viability assay.

A673 = type: functional, cell-based, Homo sapiens; settings: Homo sapiens, A673;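 also: growth inhibition of human A673 cells, read out through a cell viability assay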
Description: SANGER: Inhibition of human A673 cell growth in a cell viability assay.

A704 = type: functional, cell-based, Homo sapiens; settings: Homo sapiens, A704;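 also: growth inhibition of human A704 cells, read out with a cell viability assay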
Description: SANGER: Inhibition of human A704 cell growth in a cell viability assay.

AU565 = type: functional, cell-based, Homo sapiens; settings: Homo sapiens, AU565;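 also: cell viability assay measuring growth inhibition of human AU565 cells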
Description: SANGER: Inhibition of human AU565 cell growth in a cell viability assay.

ASPC1 = type: functional, cell-based, Homo sapiens; settings: Homo sapiens, ASPC1;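 also: growth inhibition of AsPC-1 cells, read out with a cell viability assay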
Description: SANGER: Inhibition of human AsPC-1 cell growth in a cell viability assay.

CAL-12T = type: functional, cell-based, Homo sapiens; settings: Homo sapiens, CAL-12T;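 also: growth inhibition of human CAL-12T cells, read out with a cell viability assay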
Description: SANGER: Inhibition of human CAL-12T cell growth in a cell viability assay.

YAPC = type: functional, cell-based, Homo sapiens; settings: Homo sapiens, YAPC;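 also: growth inhibition of YAPC cells, measured with a cell viability assay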
Description: SANGER: Inhibition of human YAPC cell growth in a cell viability assay.

YKG-1 = type: functional, cell-based, Homo sapiens; settings: Homo sapiens, YKG-1;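 also: cell growth inhibition, read out with a viability assay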
Description: SANGER: Inhibition of human YKG-1 cell growth in a cell viability assay.

COLO-680N = type: functional, cell-based, Homo sapiens; settings: Homo sapiens, COLO-680N;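 also: cell viability assay used to measure inhibition of COLO-680N cell growth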
Description: SANGER: Inhibition of human COLO-680N cell growth in a cell viability assay.

COc1cc(F)c(F)c(Nc2ccc(I)cc2F)c1NS(=O)(=O)C1(CC(O)CO)CC1 (stereo not given)
IC50 (Calu-6): > 5 µM
IC50 (DoTc2-4510): > 5 µM
IC50 (ES1): > 5 µM
IC50 (ES8): > 5 µM
IC50 (G-401): 1.97 µM
IC50 (GCIY): 1.18 µM
IC50 (HCC1187): > 5 µM
IC50 (HCE-4): > 5 µM
IC50 (HGC-27): > 5 µM
IC50 (HOS): > 5 µM
IC50 (HSC-2): > 5 µM
IC50 (IGROV-1): 1.78 µM
IC50 (J-RT3-T3-5): > 5 µM
IC50 (KY821): 0.107 µM
IC50 (LU-134-A): > 5 µM
IC50 (LU-99A): 3.96 µM
IC50 (MG-63): 2.82 µM
IC50 (MKN-7): > 5 µM
IC50 (ML-2): 0.503 µM
IC50 (NB14): > 5 µM
IC50 (NCI-H1648): > 5 µM
IC50 (NCI-H1770): > 5 µM
IC50 (NCI-H2052): > 5 µM
IC50 (NCI-H2170): > 5 µM
IC50 (NCI-H2405): 1.87 µM
IC50 (NCI-H2452): > 5 µM
IC50 (NCI-H441): > 5 µM
IC50 (NCI-H596): > 5 µM
IC50 (NCI-H810): > 5 µM
IC50 (NKM-1): 2.43 µM
IC50 (OAW-42): > 5 µM
IC50 (OCUB-M): > 5 µM
IC50 (PFSK-1): > 5 µM
IC50 (RS4-11): > 5 µM
IC50 (RT-112): 1.59 µM
IC50 (SW948): > 5 µM
IC50 (T98G): > 5 µM
IC50 (647-V): > 5 µM
IC50 (769-P): > 5 µM
IC50 (A2058): 3.8 µM
IC50 (A253 cell line): 3.32 µM
IC50 (A498): > 5 µM
IC50 (A673): > 5 µM
IC50 (A704): 4.7 µM
IC50 (AU565): > 5 µM
IC50 (ASPC1): 1.07 µM
IC50 (CAL-12T): 1.07 µM
IC50 (YAPC): > 5 µM
IC50 (YKG-1): 0.938 µM
IC50 (COLO-680N): > 5 µM

O=C1N=C(NCc2cccs2)S/C1=C\c1ccc2ncccc2c1
IC50 (Calu-6): > 5 µM
IC50 (DoTc2-4510): > 5 µM
IC50 (ES1): > 5 µM
IC50 (ES8): > 5 µM
IC50 (G-401): > 5 µM
IC50 (GCIY): > 5 µM
IC50 (HCC1187): > 5 µM
IC50 (HCE-4): > 5 µM
IC50 (HGC-27): > 5 µM
IC50 (HOS): > 5 µM
IC50 (HSC-2): > 5 µM
IC50 (IGROV-1): > 5 µM
IC50 (J-RT3-T3-5): > 5 µM
IC50 (KY821): > 5 µM
IC50 (LU-134-A): > 5 µM
IC50 (LU-99A): > 5 µM
IC50 (MG-63): > 5 µM
IC50 (MKN-7): > 5 µM
IC50 (ML-2): > 5 µM
IC50 (NB14): > 5 µM
IC50 (NCI-H1648): > 5 µM
IC50 (NCI-H1770): > 5 µM
IC50 (NCI-H2052): > 5 µM
IC50 (NCI-H2170): > 5 µM
IC50 (NCI-H2405): 4.74 µM
IC50 (NCI-H2452): > 5 µM
IC50 (NCI-H441): > 5 µM
IC50 (NCI-H596): > 5 µM
IC50 (NCI-H810): > 5 µM
IC50 (NKM-1): > 5 µM
IC50 (OAW-42): > 5 µM
IC50 (OCUB-M): > 5 µM
IC50 (PFSK-1): > 5 µM
IC50 (RS4-11): > 5 µM
IC50 (RT-112): > 5 µM
IC50 (SW948): > 5 µM
IC50 (T98G): 1.37 µM
IC50 (647-V): > 5 µM
IC50 (769-P): > 5 µM
IC50 (A2058): > 5 µM
IC50 (A253 cell line): > 5 µM
IC50 (A498): > 5 µM
IC50 (A673): > 5 µM
IC50 (A704): > 5 µM
IC50 (AU565): > 5 µM
IC50 (ASPC1): > 5 µM
IC50 (CAL-12T): > 5 µM
IC50 (YAPC): > 5 µM
IC50 (YKG-1): > 5 µM
IC50 (COLO-680N): > 5 µM

From ChEMBL document CHEMBL1201861, “Genomics of Drug Sensitity in Cancer screening data, Wellcome Trust Sanger Institute”
